Experimental data: PubChem BioAssay AID252 (DTP/NCI, 2004)
“And” between values parts separate entries of the source, which are not always exact repeats. Equal entries are not always repeated. Toxic doses and inconclusive results are not listed.

Test system: BDF1 mice, intracerebral L1210 leukemia, survival T/C
Assay: NCI In Vivo Anticancer Drug Screen. Data for tumor model L1210 Leukemia (intracerebral) in B6D2F1 (BDF1) mice
Conditions: higher = longer survival
Procedure, shortened: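 Antitumour effect is judged in mice with transplanted tumour by comparing survival of treated (T) against vehicle-dosed (C) groups as T/C.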

[1] = endpoint: mean survival time, dose: 19.0 mg/kg/injection, schedule: Q01DX001 (ip), vehicle: saline

In the case of O=NN(CCCl)C(=O)NC1CS(=O)(=O)CS(=O)(=O)C1, the T/C (endpoint: mean survival time, dose: 11.0 mg/kg/injection, schedule: Q01DX001 (ip), vehicle: other) is reported as 118 % of control, the T/C (endpoint: mean survival time, dose: 17.0 mg/kg/injection, schedule: Q01DX001 (ip), vehicle: other) is reported as 117 % of control and the T/C (endpoint: mean survival time, dose: 56.0 mg/kg/injection, schedule: Q01DX001 (ip), vehicle: other) is reported as 119 % of control.
For CN(C)NCCC#N, the T/C (endpoint: mean survival time, dose: 27.0 mg/kg/injection, schedule: Q01DX Z (ip), vehicle: saline) was 105 % of control, the T/C (endpoint: mean survival time, dose: 40.0 mg/kg/injection, schedule: Q01DX Z (ip), vehicle: saline) was 110 % of control and the T/C (endpoint: mean survival time, dose: 60.0 mg/kg/injection, schedule: Q01DX Z (ip), vehicle: saline) was 108 % of control. The T/C (endpoint: mean survival time, dose: 90.0 mg/kg/injection, schedule: Q01DX Z (ip), vehicle: saline) was 109 % of control.
In the case of O=NN(CCCl)C(=O)NC1CCC(NC(=O)N(CCCl)N=O)CC1 (stereo not given), the T/C (endpoint: mean survival time, dose: 38.0 mg/kg/injection, schedule: Q01DX001 (oral), vehicle: other) is reported as 119 % of control, the T/C (endpoint: mean survival time, dose: 48.0 mg/kg/injection, schedule: Q01DX001 (ip), vehicle: other) is reported as 151 % of control and 157 % of control and the T/C (endpoint: mean survival time, dose: 84.0 mg/kg/injection, schedule: Q01DX001 (oral), vehicle: other) is reported as 154 % of control. The T/C (endpoint: mean survival time, dose: 96.0 mg/kg/injection, schedule: Q01DX001 (ip), vehicle: other) was 276 % of control and 370 % of control, the T/C (endpoint: mean survival time, dose: 127.0 mg/kg/injection, schedule: Q01DX001 (ip), vehicle: carboxymethylcellulose (CMC)) was 232 % of control and the T/C (endpoint: mean survival time, dose: 171.0 mg/kg/injection, schedule: Q01DX001 (oral), vehicle: other) was 209 % of control. For the same compound, the T/C (endpoint: mean survival time, dose: 191.0 mg/kg/injection, schedule: Q01DX001 (ip), vehicle: other) was 291 % of control and 389 % of control, the T/C (endpoint: mean survival time, dose: 255.0 mg/kg/injection, schedule: Q01DX001 (ip), vehicle: carboxymethylcellulose (CMC)) was 307 % of control and the T/C (endpoint: mean survival time, dose: 319.0 mg/kg/injection, schedule: Q01DX001 (oral), vehicle: other) was 198 % of control and 260 % of control. For the same compound, the T/C (endpoint: mean survival time, dose: 383.0 mg/kg/injection, schedule: Q01DX001 (ip), vehicle: other) was 154 % of control, the T/C (endpoint: mean survival time, dose: 510.0 mg/kg/injection, schedule: Q01DX001 (ip), vehicle: carboxymethylcellulose (CMC)) was 154 % of control and the T/C (endpoint: mean survival time, dose: 638.0 mg/kg/injection, schedule: Q01DX001 (oral), vehicle: other) was 268 % of control and 398 % of control.
With CCN(CC)CCNc1ccc(CO)c2sc3ccccc3c(=O)c12 the T/C (endpoint: mean survival time, dose: 1.0 mg/kg/injection, schedule: Q01DX005 (ip), vehicle: saline) was 97 % of control, the T/C (endpoint: mean survival time, dose: 2.0 mg/kg/injection, schedule: Q01DX005 (ip), vehicle: saline) was 96 % of control and the T/C (endpoint: mean survival time, dose: 4.0 mg/kg/injection, schedule: Q01DX005 (ip), vehicle: saline) was 100 % of control. The T/C (endpoint: mean survival time, dose: 8.0 mg/kg/injection, schedule: Q01DX005 (ip), vehicle: saline) was 98 % of control, the T/C (endpoint: mean survival time, dose: 16.0 mg/kg/injection, schedule: Q01DX005 (ip), vehicle: saline) was 100 % of control and the T/C (endpoint: mean survival time, dose: 32.0 mg/kg/injection, schedule: Q01DX005 (ip), vehicle: saline) was 107 % of control. For the same compound, the T/C (endpoint: mean survival time, dose: 64.0 mg/kg/injection, schedule: Q01DX005 (ip), vehicle: saline) was 123 % of control.
In the case of CS(=O)(=O)OCC(O)C(O)COS(C)(=O)=O (stereo not given), the T/C (endpoint: mean survival time, dose: 440.0 mg/kg/injection, schedule: Q01DX001 (ip), vehicle: carboxymethylcellulose (CMC)) is reported as 92 % of control and 97 % of control, the T/C (endpoint: mean survival time, dose: 670.0 mg/kg/injection, schedule: Q01DX001 (ip), vehicle: carboxymethylcellulose (CMC)) is reported as 101 % of control and 100 % of control and the T/C (endpoint: mean survival time, dose: 1000.0 mg/kg/injection, schedule: Q01DX001 (ip), vehicle: carboxymethylcellulose (CMC)) is reported as 102 % of control and 100 % of control.
In the case of COCCOCCN1CCN(CCCN2c3ccccc3Sc3ccc(C(F)(F)F)cc32)CC1, the T/C (endpoint: mean survival time, dose: 25.0 mg/kg/injection, schedule: Q04DX003 (ip), vehicle: saline) is reported as 100 % of control, the T/C (endpoint: mean survival time, dose: 35.0 mg/kg/injection, schedule: Q04DX003 (ip), vehicle: saline) is reported as 108 % of control and the T/C (endpoint: mean survival time, dose: 50.0 mg/kg/injection, schedule: Q04DX003 (ip), vehicle: saline) is reported as 93 % of control.
In the case of CCOC(=O)C1(NC(=O)N(CCCl)N=O)CCCC1, the T/C (endpoint: mean survival time, dose: 74.0 mg/kg/injection, schedule: Q01DX001 (ip), vehicle: other) is reported as 116 % of control, the T/C (endpoint: mean survival time, dose: 108.0 mg/kg/injection, schedule: Q01DX001 (ip), vehicle: other) is reported as 119 % of control and the T/C (endpoint: mean survival time, dose: 110.0 mg/kg/injection, schedule: Q01DX001 (ip), vehicle: other) is reported as 118 % of control. The T/C (endpoint: mean survival time, dose: 168.0 mg/kg/injection, schedule: Q01DX001 (ip), vehicle: other) was 152 % of control, the T/C (endpoint: mean survival time, dose: 250.0 mg/kg/injection, schedule: Q01DX001 (ip), vehicle: other) was 174 % of control and 275 % of control and the T/C (endpoint: mean survival time, dose: 370.0 mg/kg/injection, schedule: Q01DX001 (ip), vehicle: other) was 152 % of control. The T/C (endpoint: mean survival time, dose: 375.0 mg/kg/injection, schedule: Q01DX001 (ip), vehicle: other) was 124 % of control.
O=NN(CCCl)C(=O)NC1CCCC1 was tested, and the T/C (endpoint: mean survival time, dose: 18.0 mg/kg/injection, schedule: Q01DX001 (ip), vehicle: saline) was 170 % of control, the T/C [1] was 163 % of control and 234 % of control and the T/C (endpoint: mean survival time, dose: 25.0 mg/kg/injection, schedule: Q01DX001 (ip), vehicle: saline) was 157 % of control. For the same compound, the T/C (endpoint: mean survival time, dose: 28.0 mg/kg/injection, schedule: Q01DX001 (ip), vehicle: saline) was 264 % of control, the T/C (endpoint: mean survival time, dose: 30.0 mg/kg/injection, schedule: Q01DX001 (ip), vehicle: saline) was 157 % of control and 190 % of control and the T/C (endpoint: mean survival time, dose: 38.0 mg/kg/injection, schedule: Q01DX001 (ip), vehicle: saline) was 231 % of control and 244 % of control. The T/C (endpoint: mean survival time, dose: 42.0 mg/kg/injection, schedule: Q01DX001 (ip), vehicle: saline) was 250 % of control, the T/C (endpoint: mean survival time, dose: 44.0 mg/kg/injection, schedule: Q01DX001 (ip), vehicle: saline) was 234 % of control and the T/C (endpoint: mean survival time, dose: 50.0 mg/kg/injection, schedule: Q01DX001 (ip), vehicle: saline) was 333 % of control. The T/C (endpoint: mean survival time, dose: 64.0 mg/kg/injection, schedule: Q01DX001 (ip), vehicle: saline) was 278 % of control, the T/C (endpoint: mean survival time, dose: 67.0 mg/kg/injection, schedule: Q01DX001 (ip), vehicle: saline) was 209 % of control and the T/C (endpoint: mean survival time, dose: 75.0 mg/kg/injection, schedule: Q01DX001 (ip), vehicle: saline) was 431 % of control and 485 % of control. The T/C (endpoint: mean survival time, dose: 100.0 mg/kg/injection, schedule: Q01DX001 (ip), vehicle: saline) was 257 % of control and 284 % of control, the T/C (endpoint: mean survival time, dose: 150.0 mg/kg/injection, schedule: Q01DX001 (ip), vehicle: saline) was 273 % of control and 342 % of control and 363 % of control and the T/C (endpoint: mean survival time, dose: 220.0 mg/kg/injection, schedule: Q01DX001 (ip), vehicle: saline) was 101 % of control.
For N[C@H](C(=O)O)[C@@H]1CC(Cl)=NO1, the T/C (endpoint: mean survival time, dose: 1.0 mg/kg/injection, schedule: Q01DX009 (ip), vehicle: saline) was 109 % of control, the T/C (endpoint: mean survival time, dose: 2.0 mg/kg/injection, schedule: Q01DX009 (ip), vehicle: saline) was 114 % of control and the T/C (endpoint: mean survival time, dose: 16.0 mg/kg/injection, schedule: Q01DX009 (ip), vehicle: saline) was 116 % of control. The T/C (endpoint: mean survival time, dose: 32.0 mg/kg/injection, schedule: Q01DX009 (ip), vehicle: saline) was 100 % of control, the T/C (endpoint: median survival time, dose: 4.0 mg/kg/injection, schedule: Q01DX009 (ip), vehicle: saline) was 120 % of control and the T/C (endpoint: median survival time, dose: 8.0 mg/kg/injection, schedule: Q01DX009 (ip), vehicle: saline) was 124 % of control. The T/C (endpoint: median survival time, dose: 32.0 mg/kg/injection, schedule: Q01DX009 (ip), vehicle: saline) was 100 % of control and the T/C (endpoint: median survival time, dose: 64.0 mg/kg/injection, schedule: Q01DX009 (ip), vehicle: saline) was 100 % of control.
With O=NN(CCCl)C(=O)NC12CC3CC(CC(C3)C1)C2 the T/C (endpoint: mean survival time, dose: 26.0 mg/kg/injection, schedule: Q01DX001 (ip), vehicle: carboxymethylcellulose (CMC)) was 108 % of control, the T/C (endpoint: mean survival time, dose: 40.0 mg/kg/injection, schedule: Q01DX001 (ip), vehicle: carboxymethylcellulose (CMC)) was 112 % of control and the T/C (endpoint: mean survival time, dose: 90.0 mg/kg/injection, schedule: Q01DX001 (ip), vehicle: carboxymethylcellulose (CMC)) was 120 % of control.
For CNC1=C(N2CC2)C(=O)C(NC)=C(N2CC2)C1=O, the T/C (endpoint: mean survival time, dose: 0.05 mg/kg/injection, schedule: Q01DX009 (ip), vehicle: saline) was 106 % of control, the T/C (endpoint: mean survival time, dose: 0.1 mg/kg/injection, schedule: Q01DX009 (ip), vehicle: saline) was 111 % of control and the T/C (endpoint: mean survival time, dose: 0.2 mg/kg/injection, schedule: Q01DX009 (ip), vehicle: saline) was 160 % of control. For the same compound, the T/C (endpoint: mean survival time, dose: 0.3 mg/kg/injection, schedule: Q01DX009 (ip), vehicle: saline) was 119 % of control, the T/C (endpoint: mean survival time, dose: 0.4 mg/kg/injection, schedule: Q01DX009 (ip), vehicle: saline) was 103 % of control and the T/C (endpoint: mean survival time, dose: 0.6 mg/kg/injection, schedule: Q01DX009 (ip), vehicle: saline) was 160 % of control.
CCN(CC)c1ccc2cc3ccc(=[N+](CC)CC)cc-3oc2c1 was tested, and the T/C (endpoint: mean survival time, dose: 8.0 mg/kg/injection, schedule: Q01DX001 (ip), vehicle: saline) was 97 % of control, the T/C (endpoint: mean survival time, dose: 13.0 mg/kg/injection, schedule: Q01DX001 (ip), vehicle: saline) was 96 % of control and the T/C [1] was 100 % of control.
S=P(N1CC1)(N1CC1)N1CC1 was tested, and the T/C (endpoint: mean survival time, dose: 10.0 mg/kg/injection, schedule: Q01DX001 (ip), vehicle: saline) was 154 % of control and the T/C (endpoint: mean survival time, dose: 15.0 mg/kg/injection, schedule: Q01DX001 (ip), vehicle: saline) was 228 % of control.
For NCCc1ccc(O)c(O)c1, the T/C (endpoint: mean survival time, dose: 100.0 mg/kg/injection, schedule: Q04DX003 (ip), vehicle: saline) was 102 % of control, the T/C (endpoint: mean survival time, dose: 200.0 mg/kg/injection, schedule: Q04DX003 (ip), vehicle: saline) was 95 % of control and the T/C (endpoint: mean survival time, dose: 400.0 mg/kg/injection, schedule: Q04DX003 (ip), vehicle: saline) was 98 % of control. For the same compound, the T/C (endpoint: mean survival time, dose: 800.0 mg/kg/injection, schedule: Q04DX003 (ip), vehicle: saline) was 97 % of control.
